The subject of data set [1] is intracellular sphingolipids, CCRF-CEM cells. Put plainly: LC/MS/MS analysis of intracellular sphingolipids, CCRF-CEM. The data set is classed as cell-based, human. The note with it: for increase in corresponding dihydroceramide over sphinganine plus GT-11 alone: fatty acid in addition to sphinganine plus GT-11, six hours, P<0.05. How it is done: LC/MS/MS analysis of intracellular sphingolipids. Sphingolipids were separated using an Agilent 1200 HPLC (LC) and determined by ESI/MS/MS performed on a AB SCIEX 4000 QTRAP Hybrid Triple Quadrupole/Linear Ion Trap mass spectrometer (MS), operating in a multiple reaction monitoring positive ionization mode as described previously with moderate modifications (25). Briefly, 50 μL of a solution (1 μM) of internal sphingolipid standards (including -sphingosine, -sphinganine, -sphingosine-1-phosphate, and -ceramide) was added to each cell pellet sample. Lipids of each sample were extracted twice with 2 mL of the ethyl acetate/isopropyl alcohol/water (60:28:12; v:v) solvent system. Supernatants were transferred to glass tubes (Kimble Chase) and evaporated under air (10 PSI) at 40° C. After reconstitution in methanol (4 mL), 1 ml of each sample was separated for the determination of lipid phosphate. Remaining sample (3 mL) was dried and used for sphingolipid quantification. For ESI/MS/MS, the dried lipid sample was dissolved in mobile phase A. Samples were injected (10 μL) and separated on a Spectra C8SR, 150×3.0 mm, 3-μm particle size column using gradient-elution (mobile phase A/B, prepared as previously described).
Data acquisition, peak integration and analyte quantitation were performed using ABI/SCIEX Analyst 1.4.2 Software. Sphingolipid data were normalized to lipid phosphate as previously described (26). Briefly, samples were dried under air (10 PSI) and lipids were extracted using the method of Bligh and Dyer (27). Of importance for phosphate assay, only Kimble Chase disposable borosilicate tubes were used for minimal sample contamination. Organic phase was transferred to glass tubes and a known volume was separated to a new tube and dried at 80° C. Phosphate standards and dried samples were then heated with ashing buffer (water:10 N:70% [40:9:1]) at 160° C. overnight. Samples were then incubated with ammonium molybdate and ascorbic acid as previously described, and absorbance ([…]) was read using a SpectraMax.
CCRF-CEM cells were treated with drug/fatty acid vehicles (control), GT-11 (0.5 μM) alone, sphinganine (4 μM) alone or sphinganine (4 μM) plus GT-11 (0.5 μM) for six hours and subsequently prepared for sphingolipid analysis.
CCRF-CEM cells were treated with GT-11 (0.5 μM) alone, sphinganine (1 μM) alone or sphinganine (1 μM) plus GT-11 (0.5 μM) for six hours and prepared for quantitative analysis. DHCers were normalized to control and plotted as fold change (bar, z-axis). * indicates significance, with P<0.05. […] CCRF-CEM cells were treated with sphinganine (1 μM) plus GT-11 (0.5 μM) with and without specific solubilized fatty acids (carbon chain length (CX) and saturation (:X), Ex: C20:1=fatty acid with 20 carbons and one desaturation) for six hours and prepared for quantitative sphingolipid analysis. Dihydroceramides were normalized to control cells that received sphinganine plus GT-11 with no fatty acid and plotted as fold change (bar, z-axis). * indicates significance, with P<0.05.

The test system of another data set is LoVo colon cancer cells. Kind of data set: DIMSCAN cytotoxicity assay, LoVo. Format: cell-based, human. The note with it: fatty acid 5 micromolar. From the text:
(§1) Cell culture. The pre-T acute lymphoblastic leukemia cell lines MOLT-4 and CCRF-CEM, small cell lung cancer cell line NCI-H146, non-small cell lung cancer cell line NCI-H1792, colon cancer cell lines LoVo and HT-29, and breast cancer cell line MCF-7, were purchased from American Type Culture Collection, Manassas, Va., and grown at 20%/5% and 5%/5%, respectively. COG-LL-317 and COG-LL-332 pre-T acute lymphoblastic leukemia cell lines were obtained from the TTUHSC Cancer Center Cell Repository and grown at 5%/5%. Cell line identities were verified by short tandem repeat analysis and mycoplasma testing was performed. Cell lines were maintained in RPMI-1640 medium supplemented with 10% fetal bovine serum (FBS, Invitrogen) in humidified, 37° C. incubators. For all experiments, ALL cell lines were seeded at […] in RPMI-1640 medium supplemented with 15% fetal bovine serum. Solid tumor cell lines were plated at 5×cells/mL in RPMI-1640 medium supplemented with 10% fetal bovine serum.
(§2) Cytotoxicity Assay. Cytoxicity is determined using the DIMSCAN assay system (R. Proffitt et al., Cytometry 24, 204-213 (1996); T. Frgala et al., Proc. AACR, 36, 303 (1995). The system employs digital imaging microscopy to quantify viable cells, which selectively accumulate fluorescein diacetate to become brightly fluorescent. The system is capable of measuring cytotoxicity over a 4-5 log dynamic range by quenching the residual fluorescence of dead and dying cells with eosin Y and quantifying the total fluorescence of viable cells using digital thresholding. Measured fluorescence is directly proportionate to the number of viable cells.
(§3) In brief, 5,000 to 25,000 cells/well depending on the cell line (5,000 for solid tumor, 25,000 for ALL cell lines) were replicate plated into 60 wells of a 96-well tissue culture plate in 0.1 cc media and allowed to attach or recover overnight. Drug(s) are then added in 0.05 cc media to the final concentrations indicated. […] Total fluorescence of viable cells is then measured by digital imaging microscopy and the signal normalized to control cells. […]

Data set [2] concerns NCI-H1792 non-small cell lung cancer cells. Put plainly: DIMSCAN cytotoxicity assay, NCI-H1792. The data set is classed as cell-based. Particulars: NCI-H1792, fatty acid 5 micromolar.
Source text: as §1
as §2, with “cells. A comparison of the total fluorescence of a drug-treated cell population to the fluorescence of a similar number of untreated cells yields a survival fraction.” for “cells.”
(§4) In brief, 5,000 to 25,000 cells/well depending on the cell line (5,000 for solid tumor, 25,000 for ALL cell lines) were replicate plated into 60 wells of a 96-well tissue culture plate in 0.1 cc media and allowed to attach or recover overnight. […]

In data set [3] the test system is NCI-H146 small cell lung cancer cells. Kind of data set: DIMSCAN cytotoxicity assay, NCI-H146. Format: cell-based, human. Particulars: NCI-H146, fatty acid 5 micromolar.
Source text: as §1, §2, §3

The test system of data set [4] is MCF-7 breast cancer cells. Kind of data set: DIMSCAN cytotoxicity assay, MCF-7. Particulars: MCF-7, fatty acid 5 micromolar. The data set is classed as cell-based.
Source text: as §1
as §2, with “cells. A comparison of the total fluorescence of a drug-treated cell population to the fluorescence of a similar number of untreated cells yields a survival fraction.” for “cells.”
as §4

Another data set has as its system CCRF-CEM. How it is done: Statistical analyses. Descriptive statistics and significance testing were performed using Microsoft Excel. The Excel function “t.test” was used for Student's T-testing (two-tailed, type-2). Propagated standard deviations were calculated using standard methods. Correlation analyses were performed using Sigmaplot 11 software. […]
Due to the confounding effect of in vitro fatty acid conversion, correlation analyses were used to identify significant relationships between absolute levels of specific sphingolipids and cytotoxicity. […]

A further data set concerns COG-LL-317. The data set is classed as cell-based, human. How it is done:
(§5) Statistical analyses. […] Propagated standard deviations were calculated using standard methods. Correlation analyses were performed using Sigmaplot 11 software.

A further data set has as its system COG-LL-332. The data set is classed as cell-based, human. How it is done:
as §5

A further data set relates to MOLT-4. The data set is classed as cell-based, human. How it is done:
as §5

Structures are written as SMILES.

On to `CCCCCCCCCCCCCC(=O)O` [C14:0-fatty acid], for which the “increase in corresponding dihydroceramide over sphinganine plus GT-11 alone” value in data set [1] is given as “significant increases”.
`CCCCCCCCCCCCCCCC(=O)O` [C16:0-fatty acid]: the “increase in corresponding dihydroceramide over sphinganine plus GT-11 alone” value in [1] is “significant increases”.
Consider `CCCCCCCCCCCCCCCCCCCC(=O)O` [C20:0-fatty acid], for which the “increase in C22:0-DHCer over sphinganine plus GT-11 alone” value in [1] (fatty acid 5 μM in addition to sphinganine 1 μM plus GT-11 0.5 μM, six hours, P<0.001) amounted to 12 fold. Moreover, the “increase in corresponding dihydroceramide over sphinganine plus GT-11 alone” value in data set [1] is listed as “significant increases”.
For the molecule `CCCCCCCCCCCCCCCCCCCCCCCC(=O)O` [C24:0-fatty acid], the “increase in corresponding dihydroceramide over sphinganine plus GT-11 alone” value in data set [1] is on record as “significant increases”. Also, the “effect of fatty acid on fenretinide cytotoxicity” value (in the data set with LoVo colon cancer cells; in [2]; in [3]; in data set [4]) was “did not increase cytotoxicity” each time.
Regarding `CCCCCCCC/C=C\CCCCCCCCCCCCCC(=O)N[C@@H](CO)[C@H](O)/C=C/CCCCCCCCCCCCC` [C24:1-Cer], in the data set on CCRF-CEM, the “Pearson Coef. (r), sphingolipid level vs cytotoxicity” value (shortened to “Pearson Coef. (r) … vs cytotoxicity”) is −0.27 and the “Spearman Coef. (ρ), sphingolipid level vs cytotoxicity” value (“Spearman Coef. (ρ) … vs cytotoxicity” for short) is −0.32. Also, in the data set with COG-LL-317, the “Pearson Coef. (r) … vs cytotoxicity” value is −0.42 and the “Spearman Coef. (ρ) … vs cytotoxicity” value is recorded as −0.74. In the data set on COG-LL-332, the “Pearson Coefficient (r), sphingolipid level vs cytotoxicity” value was −0.07 and the “Spearman Coefficient (ρ), sphingolipid level vs cytotoxicity” value was determined as 0.05. Moreover, in the data set with MOLT-4, the “Pearson Coef. (r) … vs cytotoxicity” value is given as −0.43 and the “Spearman Coef. (ρ) … vs cytotoxicity” value is given as −0.55.
On to `CCCCCCCC/C=C\CCCCCCCCCCCCCC(=O)N[C@@H](CO)[C@H](O)CCCCCCCCCCCCCCC` [C24:1-DHCer], for which, in the data set with CCRF-CEM, the “Pearson Coef. (r) … vs cytotoxicity” value is on record as −0.17 and the “Spearman Coef. (ρ) … vs cytotoxicity” value is −0.07. In addition, in the data set with COG-LL-317, the “Pearson Coef. (r) … vs cytotoxicity” value is recorded as −0.29 and the “Spearman Coef. (ρ) … vs cytotoxicity” value is reported as −0.21. In the data set on COG-LL-332, the “Pearson Coefficient (r), sphingolipid level vs cytotoxicity” value is on record as 0.14 and the “Spearman Coefficient (ρ), sphingolipid level vs cytotoxicity” value is 0.45. For the same molecule, in the data set with MOLT-4, the “Pearson Coef. (r) … vs cytotoxicity” value is listed as −0.04 and the “Spearman Coef. (ρ) … vs cytotoxicity” value was determined as 0.12.
In the case of `CCCCCCCC/C=C\CCCCCCCCCCCCCC(=O)O` [C24:1-fatty acid], in data set [1], the “increase in corresponding dihydroceramide over sphinganine plus GT-11 alone” value is on record as “significant increases”.
For the molecule `CCCCCCCCCCCCCCC[C@@H](O)[C@@H](N)CO` [Sphinganine, (2S,3R)-2-aminooctadecane-1,3-diol, reference compound], the “increase of total ceramide” value in data set [1] (sphinganine 4 μM alone, six hours, normalized to control, P<0.001) came to 1.5 fold. Moreover, in the data set with CCRF-CEM, the “Pearson Coef. (r) … vs cytotoxicity” value was −0.21 and the “Spearman Coef. (ρ) … vs cytotoxicity” value is given as −0.30.

For the origin of these results see patent US20120121691A1, “Method for Increasing the Production of a Specific ACYL-Chain Dihydroceramide(s) for Improving the Effectiveness of Cancer Treatments” (priority 2010, published 2012).
